Laboratory results taken from ChEMBL document CHEMBL1143083, “Potent triazolyl-proline-based inhibitors of HCV NS3 protease” (Bioorg Med Chem Lett, 2008).

Columns and labels:
[1] = system: Hepatitis C virus; assay: Antiviral activity against HCV in human Huh7 cells after 72 hrs by cell based luciferase reporter assay; format: functional, organism-based, Hepacivirus hominis; settings: Huh-7, 72 h
[2] = Inhibition of HCV NS3 protease; design: species or system Hepacivirus hominis

| Structure (SMILES) | EC50 [1] [nM] | IC50 [2] [nM] |
| --- | --- | --- |
| C=C[C@@H]1C[C@]1(NC(=O)[C@@H]1C[C@@H](Oc2cc(-c3ccccc3)nc3cc(OC)ccc23)CN1C(=O)[C@@H](NC(=O)OC1CCCC1)C(C)(C)C)C(=O)O | 550 | 14 |
| C=C[C@@H]1C[C@]1(NC(=O)[C@@H]1C[C@@H](n2cc(-c3ccc(Cl)cc3)nn2)CN1C(=O)[C@@H](NC(=O)OC1CCCC1)C(C)(C)C)C(=O)NS(=O)(=O)C1CC1 | 680 | < 3 |
| C=C[C@@H]1C[C@]1(NC(=O)[C@@H]1C[C@@H](n2cc(-c3ccsc3)nn2)CN1C(=O)[C@@H](NC(=O)OC1CCCC1)C(C)(C)C)C(=O)NS(=O)(=O)C1CC1 | 1220 | < 3 |
| C=C[C@@H]1C[C@]1(NC(=O)[C@@H]1C[C@@H](n2cc(C3CCCCC3)nn2)CN1C(=O)[C@@H](NC(=O)OC1CCCC1)C(C)(C)C)C(=O)O |  | 4300 |
| C=C[C@@H]1C[C@]1(NC(=O)[C@@H]1C[C@@H](n2cc(-c3cc(Cl)cc(Cl)c3)nn2)CN1C(=O)[C@@H](NC(=O)OC1CCCC1)C(C)(C)C)C(=O)NS(=O)(=O)C1CC1 | 140 | < 3 |
| C=C[C@@H]1C[C@]1(NC(=O)[C@@H]1C[C@@H](n2ccnn2)CN1C(=O)[C@@H](NC(=O)OC1CCCC1)C(C)(C)C)C(=O)O |  | 59000 |
| C=C[C@@H]1C[C@]1(NC(=O)[C@@H]1C[C@@H](n2cc(-c3cc(Br)cc(Br)c3)nn2)CN1C(=O)[C@@H](NC(=O)OC1CCCC1)C(C)(C)C)C(=O)NS(=O)(=O)C1CC1 | 150 | < 3 |
| C=C[C@@H]1C[C@]1(NC(=O)[C@@H]1C[C@@H](n2cc(-c3ccc4c(c3)OCO4)nn2)CN1C(=O)[C@@H](NC(=O)OC1CCCC1)C(C)(C)C)C(=O)NS(=O)(=O)C1CC1 | 190 | < 3 |
| C=C[C@@H]1C[C@]1(NC(=O)[C@@H]1C[C@@H](n2cc(-c3ccc4c(c3)CCO4)nn2)CN1C(=O)[C@@H](NC(=O)OC1CCCC1)C(C)(C)C)C(=O)NS(=O)(=O)C1CC1 | 230 | < 3 |
| C=C[C@@H]1C[C@]1(NC(=O)[C@@H]1C[C@@H](n2cc(-c3ccccc3Cl)nn2)CN1C(=O)[C@@H](NC(=O)OC1CCCC1)C(C)(C)C)C(=O)NS(=O)(=O)C1CC1 | 220 | < 3 |
| C=C[C@@H]1C[C@]1(NC(=O)[C@@H]1C[C@@H](n2cc(-c3ccc(N(C)C)cc3)nn2)CN1C(=O)[C@@H](NC(=O)OC1CCCC1)C(C)(C)C)C(=O)NS(=O)(=O)C1CC1 | 270 | < 3 |
| C=C[C@@H]1C[C@]1(NC(=O)[C@@H]1C[C@@H](n2cc(-c3ccc(-c4ccccc4)cc3)nn2)CN1C(=O)[C@@H](NC(=O)OC1CCCC1)C(C)(C)C)C(=O)O |  | 860 |
| C=C[C@@H]1C[C@]1(NC(=O)[C@@H]1C[C@@H](n2cc(-c3ccc(OC)cc3)nn2)CN1C(=O)[C@@H](NC(=O)OC1CCCC1)C(C)(C)C)C(=O)O |  | 360 |
| C=C[C@@H]1C[C@]1(NC(=O)[C@@H]1C[C@@H](n2cc(-c3cccc4ccccc34)nn2)CN1C(=O)[C@@H](NC(=O)OC1CCCC1)C(C)(C)C)C(=O)O |  | 890 |
| C=C[C@@H]1C[C@]1(NC(=O)[C@@H]1C[C@@H](n2cc(-c3ccc(Cl)cc3)nn2)CN1C(=O)[C@@H](NC(=O)OC1CCCC1)C(C)(C)C)C(=O)O |  | 790 |
| C=C[C@@H]1C[C@]1(NC(=O)[C@@H]1C[C@@H](n2cc(-c3ccc(S(C)(=O)=O)cc3)nn2)CN1C(=O)[C@@H](NC(=O)OC1CCCC1)C(C)(C)C)C(=O)NS(=O)(=O)C1CC1 | > 7300 | < 3 |
| C=C[C@@H]1C[C@]1(NC(=O)[C@@H]1C[C@@H](n2cc(-c3ccc4c(c3)CCO4)nn2)CN1C(=O)[C@@H](NC(=O)OC1CCCC1)C(C)(C)C)C(=O)O |  | 130 |
| C=C[C@@H]1C[C@]1(NC(=O)[C@@H]1C[C@@H](n2cc(-c3cccc(Cl)c3)nn2)CN1C(=O)[C@@H](NC(=O)OC1CCCC1)C(C)(C)C)C(=O)NS(=O)(=O)C1CC1 | 170 | < 3 |
| C=C[C@@H]1C[C@]1(NC(=O)[C@@H]1C[C@@H](n2cc(-c3cc(Br)cc(Br)c3)nn2)CN1C(=O)[C@@H](NC(=O)NC1CCCC1)C(C)(C)C)C(=O)NS(=O)(=O)C1CC1 | 105 |  |
| C=C[C@@H]1C[C@]1(NC(=O)[C@@H]1C[C@@H](n2cc(-c3ccccn3)nn2)CN1C(=O)[C@@H](NC(=O)OC1CCCC1)C(C)(C)C)C(=O)O |  | 3700 |
| C=C[C@@H]1C[C@]1(NC(=O)[C@@H]1C[C@@H](n2nncc2-c2ccccc2)CN1C(=O)[C@@H](NC(=O)OC1CCCC1)C(C)(C)C)C(=O)O |  | 14000 |
| C=C[C@@H]1C[C@]1(NC(=O)[C@@H]1C[C@@H](n2cc(-c3ccccc3)nn2)CN1C(=O)[C@@H](NC(=O)OC1CCCC1)C(C)(C)C)C(=O)O |  | 700 |
| C=C[C@@H]1C[C@]1(NC(=O)[C@@H]1C[C@@H](n2cc(-c3cc(Br)cc(Br)c3)nn2)CN1C(=O)[C@@H](NC(=O)OC1CCCC1)C(C)(C)C)C(=O)NS(=O)(=O)C1(C)CC1 | 77 |  |
| C=C[C@@H]1C[C@]1(NC(=O)[C@@H]1C[C@@H](n2cc(-c3cccc(Br)c3)nn2)CN1C(=O)[C@@H](NC(=O)OC1CCCC1)C(C)(C)C)C(=O)NS(=O)(=O)C1CC1 | 210 | < 3 |
| C=C[C@@H]1C[C@]1(NC(=O)[C@@H]1C[C@@H](n2cc(-c3ccccc3)nn2)CN1C(=O)[C@@H](NC(=O)OC1CCCC1)C(C)(C)C)C(=O)NS(=O)(=O)C1CC1 | 430 | 2.7 |
